PubChem BioAssay AID624009 (Vanderbilt Specialized Chemistry Center, 2012)
Active and inactive are the calls of the source. How the calls were made is not given here.

Target: Phospholipase D2 (Homo sapiens) + Phospholipase D2 (Homo sapiens) (UniProt O14939+O14939)
Assay: phospholipase D2 activity inhibition in cells – cell-based, HEK293 overexpressing PLD2, Lib32, assay 1B (AID 624009)
Settings: HEK293 cells overexpressing PLD2, cellular PLD activity; hits give low values; concentration not given here

Chain of Phospholipase D2 (Homo sapiens) + Phospholipase D2 (Homo sapiens) (O14939 whole entry, looked up): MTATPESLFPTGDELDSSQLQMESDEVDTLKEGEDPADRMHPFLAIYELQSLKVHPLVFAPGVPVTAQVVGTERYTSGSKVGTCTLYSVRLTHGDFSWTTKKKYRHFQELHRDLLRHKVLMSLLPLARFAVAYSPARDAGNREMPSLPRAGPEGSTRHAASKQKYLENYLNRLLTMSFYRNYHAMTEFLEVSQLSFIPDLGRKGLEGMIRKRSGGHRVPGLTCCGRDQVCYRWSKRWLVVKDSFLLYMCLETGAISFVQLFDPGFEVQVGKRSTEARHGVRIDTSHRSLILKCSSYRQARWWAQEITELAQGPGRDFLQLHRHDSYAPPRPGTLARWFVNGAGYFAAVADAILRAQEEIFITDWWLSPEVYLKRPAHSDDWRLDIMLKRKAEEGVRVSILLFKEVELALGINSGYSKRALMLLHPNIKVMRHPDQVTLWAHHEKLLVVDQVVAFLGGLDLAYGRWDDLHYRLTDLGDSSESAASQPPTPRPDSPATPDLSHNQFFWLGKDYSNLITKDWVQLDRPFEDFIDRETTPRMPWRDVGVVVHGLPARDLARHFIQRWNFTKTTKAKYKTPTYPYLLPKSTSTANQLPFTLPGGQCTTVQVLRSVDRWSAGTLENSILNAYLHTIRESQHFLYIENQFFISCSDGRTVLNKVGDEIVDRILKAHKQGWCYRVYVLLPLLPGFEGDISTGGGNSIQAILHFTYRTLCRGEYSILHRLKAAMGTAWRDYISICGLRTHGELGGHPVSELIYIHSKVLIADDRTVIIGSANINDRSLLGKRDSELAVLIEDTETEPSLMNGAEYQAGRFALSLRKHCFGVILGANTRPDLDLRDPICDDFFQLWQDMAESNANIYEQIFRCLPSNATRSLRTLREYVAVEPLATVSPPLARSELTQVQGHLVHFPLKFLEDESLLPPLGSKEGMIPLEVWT
Chain of Phospholipase D2 (Homo sapiens) + Phospholipase D2 (Homo sapiens) (O14939 whole entry, looked up): as above

SMILES	remaining activity
C[C@@H](CN1CCC2(CC1)C(=O)NCN2c1cccc(F)c1)NC(=O)c1c(F)cccc1F	106% (inactive)
C[C@@H](CN1CCC2(CC1)C(=O)NCN2c1cccc(F)c1)NC(=O)c1ccc(Cl)cc1Cl	81.5% (inactive)
O=C(NCCN1CCC2(CC1)C(=O)NCN2c1cccc(F)c1)c1ccc(Cl)cc1Cl	116% (inactive)
C[C@@H](CN1CCC2(CC1)C(=O)NCN2c1cccc(F)c1)NC(=O)c1ccccc1I	79.4% (inactive)
C[C@@H](CN1CCC2(CC1)C(=O)NCN2c1cccc(F)c1)NC(=O)c1cccc(C(F)(F)F)c1	68.8% (inactive)
O=C(NCCN1CCC2(CC1)C(=O)NCN2c1cccc(F)c1)c1ccc(Br)cc1	39.2%
C[C@@H](CN1CCC2(CC1)C(=O)NCN2c1cccc(F)c1)NC(=O)c1cccc(F)c1	53.3%
O=C(Cc1ccc(F)cc1)NCCN1CCC2(CC1)C(=O)NCN2c1cccc(F)c1	92.5% (inactive)
O=C(NCCN1CCC2(CC1)C(=O)NCN2c1cccc(F)c1)c1cccc2ccccc12	96.3% (inactive)
C[C@@H](CN1CCC2(CC1)C(=O)NCN2c1cccc(F)c1)NC(=O)c1ccc(F)cc1	33.3%
C[C@@H](CN1CCC2(CC1)C(=O)NCN2c1cccc(F)c1)NC(=O)c1c(F)ccc(F)c1Cl	94.8% (inactive)
O=C(c1ccc(F)cc1)N(CCN1CCC2(CC1)C(=O)NCN2c1cccc(F)c1)C(=O)c1ccc(F)cc1	102% (inactive)
O=C(NCCN1CCC2(CC1)C(=O)NCN2c1cccc(F)c1)c1ccccn1	99.8% (inactive)
C[C@@H](CN1CCC2(CC1)C(=O)NCN2c1cccc(F)c1)NC(=O)c1ccc(Br)cc1	26.6%
O=C(NCCN1CCC2(CC1)C(=O)NCN2c1cccc(F)c1)c1ccccc1I	111% (inactive)
O=C(NCCN1CCC2(CC1)C(=O)NCN2c1cccc(F)c1)c1ccc(F)cc1F	111% (inactive)
O=C(NCCN1CCC2(CC1)C(=O)NCN2c1cccc(F)c1)c1cccc(C(F)(F)F)c1	107% (inactive)
C[C@@H](CN1CCC2(CC1)C(=O)NCN2c1cccc(F)c1)NC(=O)c1ccc(F)c(F)c1	22.8%
O=C(NCCN1CCC2(CC1)C(=O)NCN2c1cccc(F)c1)c1cccc([N+](=O)[O-])c1	71% (inactive)
COc1cc(C(=O)N[C@@H](C)CN2CCC3(CC2)C(=O)NCN3c2cccc(F)c2)cc(OC)c1OC	34.8%
O=C(NCCN1CCC2(CC1)C(=O)NCN2c1cccc(F)c1)c1cccc2c1OCO2	83.3% (inactive)
C[C@@H](CN1CCC2(CC1)C(=O)NCN2c1cccc(F)c1)NC(=O)c1ccc(F)cc1F	48.2%
C[C@@H](CN1CCC2(CC1)C(=O)NCN2c1cccc(F)c1)NC(=O)Cc1ccc(F)cc1	91.1% (inactive)
O=C(NCCN1CCC2(CC1)C(=O)NCN2c1cccc(F)c1)c1ccc(F)cc1	59.4%
COc1cc(C(=O)NCCN2CCC3(CC2)C(=O)NCN3c2cccc(F)c2)cc(OC)c1OC	46.7%
C[C@@H](CN1CCC2(CC1)C(=O)NCN2c1cccc(F)c1)NC(=O)c1cccc2ccccc12	81% (inactive)
C[C@@H](CN1CCC2(CC1)C(=O)NCN2c1cccc(F)c1)NC(=O)c1cccc([N+](=O)[O-])c1	74.9% (inactive)
O=C(NCCN1CCC2(CC1)C(=O)NCN2c1cccc(F)c1)c1c(F)ccc(F)c1Cl	85% (inactive)
